According to patent publication US7115600B2, “Histamine-3 receptor modulators” (Pfizer Inc., priority 2004, dated 2006):

Molecular target: T1, rat histamine H3 receptors (Rattus norvegicus, UniProt Q9QYN8)
T1 construct: Frozen rat frontal brain or frozen human post-mortem frontal brain is homogenized; from tissue; host or cells: rat frontal brain membranes
Experiment: Rat Histamine H3 Receptor Binding
Conditions: frozen rat frontal brain membranes; radioligand 1 nM 3H-N-methyl-histamine; 1 hour incubation; read-out: rH3 Ki

T1 sequence (Q9QYN8 whole entry): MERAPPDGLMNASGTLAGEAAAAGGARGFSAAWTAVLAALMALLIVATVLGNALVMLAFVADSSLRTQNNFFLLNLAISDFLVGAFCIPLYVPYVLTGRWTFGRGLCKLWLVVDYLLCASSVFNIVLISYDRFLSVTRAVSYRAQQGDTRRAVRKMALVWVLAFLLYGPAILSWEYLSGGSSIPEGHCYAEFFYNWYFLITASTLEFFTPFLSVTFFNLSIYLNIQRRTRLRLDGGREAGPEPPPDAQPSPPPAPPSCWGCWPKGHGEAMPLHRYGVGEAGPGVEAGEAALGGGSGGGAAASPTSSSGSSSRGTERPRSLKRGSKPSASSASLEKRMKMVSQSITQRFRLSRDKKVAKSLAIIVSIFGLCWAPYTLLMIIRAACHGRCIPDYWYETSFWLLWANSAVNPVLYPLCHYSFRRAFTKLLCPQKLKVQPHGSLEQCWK

Ki [nM] | SMILES
0.58 | c1cc([C@H]2C[C@H](CN3CCCCC3)C2)ccc1CN1CCCC1 [Example 108, trans-1-[3-(4-Pyrrolidin-1-ylmethyl-phenyl)-cyclobutylmethyl]-piperidine]
0.77 | Fc1cnc(N2CCN(C[C@H]3C[C@H](c4ccc(CN5CCCC5)cc4)C3)CC2)nc1 [Example 112, trans-5-Fluoro-2-{4-[3-(4-pyrrolidin-1-ylmethyl-phenyl)-cyclobutylmethyl]-piperazin-1-yl}-pyrimidine]
4.46 | CCN(CCO)C[C@H]1C[C@H](c2ccc(CN3CCCC3)cc2)C1 [Example 113, trans-2-{Ethyl-[3-(4-pyrrolidin-1-ylmethyl-phenyl)-cyclobutylmethyl]-amino}-ethanol]
0.48 | CC1CC(C)CN(C[C@H]2C[C@H](c3ccc(CN4CCCC4)cc3)C2)C1 (stereo partly drawn) [Example 114, trans-3,5-Dimethyl-1-[3-(4-pyrrolidin-1-ylmethyl-phenyl)-cyclobutylmethyl]-piperidine]
1.44 | CN(C[C@H]1C[C@H](c2ccc(CN3CCCC3)cc2)C1)C1CCCCC1 [Example 115, trans-Cyclohexyl-methyl-[3-(4-pyrrolidin-1-ylmethyl-phenyl)-cyclobutylmethyl]-amine]
2.82 | CN(Cc1ccccc1)C[C@H]1C[C@H](c2ccc(CN3CCCC3)cc2)C1 [Example 116, trans-Benzyl-methyl-[3-(4-pyrrolidin-1-ylmethyl-phenyl)-cyclobutylmethyl]-amine]
1.34 | CC1CCN(C[C@H]2C[C@H](c3ccc(CN4CCCC4)cc3)C2)CC1 [Example 119, trans-4-Methyl-1-[3-(4-pyrrolidin-1-ylmethyl-phenyl)-cyclobutylmethyl]-piperidine]
2.81 | CC1CCCC(C)N1C[C@H]1C[C@H](c2ccc(CN3CCCC3)cc2)C1 (stereo partly drawn) [Example 121, trans-2,6-Dimethyl-1-[3-(4-pyrrolidin-1-ylmethyl-phenyl)-cyclobutylmethyl]-piperidine]
2.71 | CN(Cc1cccnc1)C[C@H]1C[C@H](c2ccc(CN3CCCC3)cc2)C1 [Example 122, trans-Methyl-pyridin-3-ylmethyl-[3-(4-pyrrolidin-1-ylmethyl-phenyl)-cyclobutylmethyl]-amine]
6.84 | C[C@@H]1CC[C@@H](C)N1C[C@H]1C[C@H](c2ccc(CN3CCCC3)cc2)C1 [Example 123, trans-(2R,5R)-2,5-Dimethyl-1-[3-(4-pyrrolidin-1-ylmethyl-phenyl)-cyclobutylmethyl]-pyrrolidine]
0.49 | CCCN(CC1CC1)C[C@H]1C[C@H](c2ccc(CN3CCCC3)cc2)C1 [Example 124]
1.77 | c1ccc2c(c1)CN(C[C@H]1C[C@H](c3ccc(CN4CCCC4)cc3)C1)C2 [Example 125, trans-2-[3-(4-Pyrrolidin-1-ylmethyl-phenyl)-cyclobutylmethyl]-2,3-dihydro-1H-isoindole]
1.89 | C[C@@H]1CN(C[C@H]2C[C@H](c3ccc(CN4CCCC4)cc3)C2)C[C@H](C)O1 [Example 126, trans-(2R,6S)-2,6-Dimethyl-4-[3-(4-pyrrolidin-1-ylmethyl-phenyl)-cyclobutylmethyl]-morpholine]
101 | O=C1CN(C[C@H]2C[C@H](c3ccc(CN4CCCC4)cc3)C2)CCN1 [Example 127, trans-4-[3-(4-Pyrrolidin-1-ylmethyl-phenyl)-cyclobutylmethyl]-piperazin-2-one]
8.91 | COC[C@@H]1CCCN1C[C@H]1C[C@H](c2ccc(CN3CCCC3)cc2)C1 [Example 128, trans-(S)-2-Methoxymethyl-1-[3-(4-pyrrolidin-1-ylmethyl-phenyl)-cyclobutylmethyl]-pyrrolidine]
